Experimental data taken from ChEMBL document CHEMBL3826884, “Synthesis and biological evaluation of 3-substituted 5-benzylidene-1-methyl-2-thiohydantoins as potent NADPH oxidase (NOX) inhibitors” (Bioorg Med Chem, 2016).

Key:
[1] = target: T1, NADPH oxidase 1 (Homo sapiens, UniProt Q9Y5S8); assay: Inhibition of human NOX1 expressed in Drosophila DUOX knockdown model assessed as decrease in ROS production by lucigenin chemiluminescence assay
T1 sequence (Q9Y5S8 whole entry): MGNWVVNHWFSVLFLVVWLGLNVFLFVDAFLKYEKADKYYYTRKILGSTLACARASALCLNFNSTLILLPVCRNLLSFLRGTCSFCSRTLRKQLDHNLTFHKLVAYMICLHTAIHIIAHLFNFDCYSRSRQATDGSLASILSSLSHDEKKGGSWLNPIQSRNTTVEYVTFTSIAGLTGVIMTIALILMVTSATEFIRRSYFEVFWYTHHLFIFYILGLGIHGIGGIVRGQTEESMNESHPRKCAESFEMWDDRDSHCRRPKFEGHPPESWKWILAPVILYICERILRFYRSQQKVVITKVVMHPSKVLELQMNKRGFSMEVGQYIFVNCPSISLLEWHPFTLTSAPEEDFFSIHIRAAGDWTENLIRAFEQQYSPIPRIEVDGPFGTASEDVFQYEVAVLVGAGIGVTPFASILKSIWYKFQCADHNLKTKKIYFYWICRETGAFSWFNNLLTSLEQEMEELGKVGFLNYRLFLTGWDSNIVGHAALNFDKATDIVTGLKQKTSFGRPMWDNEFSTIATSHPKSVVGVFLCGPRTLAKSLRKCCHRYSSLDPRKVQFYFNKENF

[2] = target: T2, NADPH oxidase 4 (Homo sapiens, UniProt Q9NPH5); assay: Inhibition of human NOX4 expressed in Drosophila DUOX knockdown model assessed as decrease in ROS production by lucigenin chemiluminescence assay
T2 sequence (Q9NPH5 whole entry): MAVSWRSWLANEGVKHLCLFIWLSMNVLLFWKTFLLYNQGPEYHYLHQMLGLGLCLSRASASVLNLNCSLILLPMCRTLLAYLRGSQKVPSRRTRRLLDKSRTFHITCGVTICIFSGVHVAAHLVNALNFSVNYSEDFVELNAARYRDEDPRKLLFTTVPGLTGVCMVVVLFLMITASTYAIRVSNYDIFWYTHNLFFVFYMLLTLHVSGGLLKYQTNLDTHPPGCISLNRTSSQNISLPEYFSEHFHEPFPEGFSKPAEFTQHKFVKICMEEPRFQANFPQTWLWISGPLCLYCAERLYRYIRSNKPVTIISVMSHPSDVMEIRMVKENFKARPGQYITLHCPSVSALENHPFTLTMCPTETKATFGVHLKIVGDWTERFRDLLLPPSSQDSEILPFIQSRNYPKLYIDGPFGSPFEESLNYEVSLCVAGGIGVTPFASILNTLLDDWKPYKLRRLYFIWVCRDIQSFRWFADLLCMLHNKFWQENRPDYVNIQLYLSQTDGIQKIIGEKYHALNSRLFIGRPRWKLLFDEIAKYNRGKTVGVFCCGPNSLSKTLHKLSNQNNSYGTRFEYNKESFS

[3] = organism: Homo sapiens; assay: Selectivity ratio of Ki for human NOX1 expressed in Drosophila DUOX knockdown model to Ki for human NOX4 expressed in Drosophila DUOX knockdown model

SMILES	Ki [1]	Ki [2]	Ratio Ki [3]
CN1C(=S)N(c2ccccc2)C(=O)/C1=C/c1ccc(N(C)C)cc1	1.95 µM	0.88 µM	2.2
CCc1ccc(N2C(=O)/C(=C/c3ccc(O)cc3O)N(C)C2=S)cc1	8.4 µM	2.39 µM	3.5
CN1C(=S)N(c2ccccc2)C(=O)/C1=C/c1cccc(O)c1O	49.7 µM	24 µM	–
CN1C(=S)N(c2cccc(Cl)c2)C(=O)/C1=C/c1cccc(O)c1O	7.65 µM	9.31 µM	–
Cc1ccc(N2C(=O)/C(=C/c3ccc(O)cc3O)N(C)C2=S)cc1	27.1 µM	34.6 µM	–
CN1C(=S)N(C2CCCCC2)C(=O)/C1=C/c1ccc(O)cc1O	26 µM	37.6 µM	–
CN1C(=S)N(c2ccc3c(c2)CCC3)C(=O)/C1=C/c1ccc(N(C)C)cc1	8.04 µM	13.1 µM	–
CN1C(=S)N(C2CCCCC2)C(=O)/C1=C/c1ccc(N(C)C)cc1	12.3 µM	35.6 µM	–
CN1C(=S)N(c2ccc3c(c2)CCC3)C(=O)/C1=C/c1cccc(O)c1O	6.63 µM	2.36 µM	2.8
CCc1ccc(N2C(=O)/C(=C/c3cccc(O)c3O)N(C)C2=S)cc1	27.9 µM	26.4 µM	–

The remaining compounds from weak to strong by Ki [1], led by results:

Ki [1]	Ki [2]	Ratio Ki [3]	SMILES
50.3 µM	27 µM	–	Cc1ccc(N2C(=O)/C(=C/c3cccc(O)c3O)N(C)C2=S)cc1
34.5 µM	33.8 µM	–	CN1C(=S)N(c2cccc(Cl)c2)C(=O)/C1=C/c1ccc(O)cc1O
33.8 µM	27.7 µM	–	CN1C(=S)N(c2ccccc2)C(=O)/C1=C/c1ccc(O)cc1O
7.39 µM	6.35 µM	–	CN1C(=S)N(C2CCCCC2)C(=O)/C1=C/c1cccc(O)c1O
6.58 µM	6.83 µM	–	CN1C(=S)N(c2ccc3c(c2)CCC3)C(=O)/C1=C/c1ccc(O)cc1O
4.39 µM	2.63 µM	–	CCc1ccc(N2C(=O)/C(=C/c3ccc(N(C)C)cc3)N(C)C2=S)cc1
1.02 µM	2.33 µM	–	Cc1ccc(N2C(=O)/C(=C/c3ccc(N(C)C)cc3)N(C)C2=S)cc1
0.35 µM	0.84 µM	–	CN1C(=S)N(c2cccc(Cl)c2)C(=O)/C1=C/c1ccc(N(C)C)cc1
